The record followed here is ChEMBL document CHEMBL5465560, “Selectivity Literature for EUbOPEN Chemogenomic Library” (2024).

Broadly, the IC50 is the concentration at which inhibition is half-maximal. Higher therefore signals lower potency.

SMILES strings stand for the structures.

The target in experiment [1] is Vascular endothelial growth factor receptor 3 (Homo sapiens, UniProt P35916). Description: Selectivity interaction (KinomeScan (DiscoverX)) EUB0000595a FLT4. The conditions noted are these: at 10 µM.
Experiment [2] concerns the target Activin receptor type-1-like (Homo sapiens) (UniProt P37023). The experiment is described as follows: Selectivity interaction (KinomeScan (DiscoverX)) EUB0000607a ACVRL1. The conditions noted are these: at 10 µM.
For experiment [3], the target named is T1, Serine/threonine-protein kinase DCLK3 (Homo sapiens) (UniProt Q9C098).
T1 sequence (whole entry): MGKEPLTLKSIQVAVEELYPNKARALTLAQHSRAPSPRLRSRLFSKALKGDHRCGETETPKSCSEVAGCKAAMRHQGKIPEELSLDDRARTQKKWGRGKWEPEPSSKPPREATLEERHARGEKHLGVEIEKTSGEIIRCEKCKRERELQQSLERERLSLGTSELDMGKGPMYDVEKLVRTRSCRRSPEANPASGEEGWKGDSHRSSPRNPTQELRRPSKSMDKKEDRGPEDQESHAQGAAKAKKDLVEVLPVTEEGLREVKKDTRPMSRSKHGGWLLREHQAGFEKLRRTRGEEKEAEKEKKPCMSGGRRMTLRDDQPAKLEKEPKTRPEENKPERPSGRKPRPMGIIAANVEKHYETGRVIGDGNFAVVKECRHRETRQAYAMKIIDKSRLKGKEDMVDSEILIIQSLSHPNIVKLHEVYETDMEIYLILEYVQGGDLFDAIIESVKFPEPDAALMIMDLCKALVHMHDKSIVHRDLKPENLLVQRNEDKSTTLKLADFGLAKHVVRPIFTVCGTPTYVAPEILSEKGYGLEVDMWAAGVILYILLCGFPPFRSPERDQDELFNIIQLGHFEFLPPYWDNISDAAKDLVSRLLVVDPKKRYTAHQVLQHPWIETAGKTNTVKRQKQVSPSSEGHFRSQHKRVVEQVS
The experiment is described as follows: Selectivity interaction (KinomeScan (DiscoverX)) EUB0000607a DCLK3. The conditions noted are these: at 10 µM.

Experiment [4] deals with Proto-oncogene tyrosine-protein kinase Src (Homo sapiens, UniProt P12931). The experiment is described as follows: Selectivity interaction (KinomeScan (DiscoverX)) EUB0000607a SRC. The conditions noted are these: at 10 µM.
Experiment [5] deals with T2, Aurora kinase A (Homo sapiens) (UniProt O14965).
T2 sequence (whole entry): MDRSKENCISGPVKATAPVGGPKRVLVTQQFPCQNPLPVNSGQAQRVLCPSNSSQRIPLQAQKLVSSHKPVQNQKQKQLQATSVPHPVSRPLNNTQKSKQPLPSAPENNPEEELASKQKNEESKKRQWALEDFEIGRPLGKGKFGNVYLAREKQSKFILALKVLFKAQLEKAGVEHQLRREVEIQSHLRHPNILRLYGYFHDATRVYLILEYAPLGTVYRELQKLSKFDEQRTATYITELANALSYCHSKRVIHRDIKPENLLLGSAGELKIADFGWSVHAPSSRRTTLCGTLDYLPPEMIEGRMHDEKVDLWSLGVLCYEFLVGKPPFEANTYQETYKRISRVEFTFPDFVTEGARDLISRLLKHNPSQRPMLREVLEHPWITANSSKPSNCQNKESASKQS
Description: Selectivity interaction (ActivX KiNativ screen (kinase selectivity in THP-1 cell lysates)) EUB0000639a STK6. The format is subcellular. The conditions noted are these: lysate, at 5 µM.

The target of experiment [6] is Protein-tyrosine kinase 2-beta (Homo sapiens) (UniProt Q14289). The experiment is described as follows: Selectivity interaction (ActivX KiNativ screen (kinase selectivity in THP-1 cell lysates)) EUB0000639a PTK2B. In kind it is subcellular. The conditions noted are these: lysate, at 0.01 µM.
Protein-tyrosine kinase 2-beta (Homo sapiens), sequence (Q14289 whole entry, looked up): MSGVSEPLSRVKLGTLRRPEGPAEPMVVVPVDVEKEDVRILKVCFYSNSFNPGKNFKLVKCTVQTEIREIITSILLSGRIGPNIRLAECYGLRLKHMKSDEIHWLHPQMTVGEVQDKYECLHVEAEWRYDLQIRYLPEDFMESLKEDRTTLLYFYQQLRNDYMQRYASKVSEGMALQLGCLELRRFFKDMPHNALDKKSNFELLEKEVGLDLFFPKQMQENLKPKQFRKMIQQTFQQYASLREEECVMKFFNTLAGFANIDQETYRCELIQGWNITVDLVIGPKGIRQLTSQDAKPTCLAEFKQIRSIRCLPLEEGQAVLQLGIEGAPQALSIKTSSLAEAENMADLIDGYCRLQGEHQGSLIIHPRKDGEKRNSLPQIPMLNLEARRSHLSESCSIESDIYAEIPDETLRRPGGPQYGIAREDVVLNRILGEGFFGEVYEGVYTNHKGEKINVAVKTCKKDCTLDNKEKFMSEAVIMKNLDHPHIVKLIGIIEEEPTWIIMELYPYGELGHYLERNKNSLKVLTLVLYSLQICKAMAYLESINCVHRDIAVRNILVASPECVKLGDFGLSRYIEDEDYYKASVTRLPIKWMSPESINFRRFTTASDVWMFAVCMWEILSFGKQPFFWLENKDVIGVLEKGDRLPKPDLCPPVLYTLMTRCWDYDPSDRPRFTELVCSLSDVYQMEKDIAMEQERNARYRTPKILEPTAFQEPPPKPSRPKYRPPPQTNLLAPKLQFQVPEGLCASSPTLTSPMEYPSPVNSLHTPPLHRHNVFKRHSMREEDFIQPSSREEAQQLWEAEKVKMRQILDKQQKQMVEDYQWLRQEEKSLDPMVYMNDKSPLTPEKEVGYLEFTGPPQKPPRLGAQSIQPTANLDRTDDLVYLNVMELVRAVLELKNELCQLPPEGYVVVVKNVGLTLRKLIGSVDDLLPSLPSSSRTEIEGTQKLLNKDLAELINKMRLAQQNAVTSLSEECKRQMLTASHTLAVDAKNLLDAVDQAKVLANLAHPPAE
The target of experiment [7] is Serine/threonine-protein kinase tousled-like 2 (Homo sapiens) (UniProt Q86UE8). The experiment is described as follows: Selectivity interaction (ActivX KiNativ screen (kinase selectivity in THP-1 cell lysates)) EUB0000639a TLK2. In kind it is subcellular. The conditions noted are these: lysate.
Serine/threonine-protein kinase tousled-like 2 (Homo sapiens), sequence (Q86UE8 whole entry, looked up): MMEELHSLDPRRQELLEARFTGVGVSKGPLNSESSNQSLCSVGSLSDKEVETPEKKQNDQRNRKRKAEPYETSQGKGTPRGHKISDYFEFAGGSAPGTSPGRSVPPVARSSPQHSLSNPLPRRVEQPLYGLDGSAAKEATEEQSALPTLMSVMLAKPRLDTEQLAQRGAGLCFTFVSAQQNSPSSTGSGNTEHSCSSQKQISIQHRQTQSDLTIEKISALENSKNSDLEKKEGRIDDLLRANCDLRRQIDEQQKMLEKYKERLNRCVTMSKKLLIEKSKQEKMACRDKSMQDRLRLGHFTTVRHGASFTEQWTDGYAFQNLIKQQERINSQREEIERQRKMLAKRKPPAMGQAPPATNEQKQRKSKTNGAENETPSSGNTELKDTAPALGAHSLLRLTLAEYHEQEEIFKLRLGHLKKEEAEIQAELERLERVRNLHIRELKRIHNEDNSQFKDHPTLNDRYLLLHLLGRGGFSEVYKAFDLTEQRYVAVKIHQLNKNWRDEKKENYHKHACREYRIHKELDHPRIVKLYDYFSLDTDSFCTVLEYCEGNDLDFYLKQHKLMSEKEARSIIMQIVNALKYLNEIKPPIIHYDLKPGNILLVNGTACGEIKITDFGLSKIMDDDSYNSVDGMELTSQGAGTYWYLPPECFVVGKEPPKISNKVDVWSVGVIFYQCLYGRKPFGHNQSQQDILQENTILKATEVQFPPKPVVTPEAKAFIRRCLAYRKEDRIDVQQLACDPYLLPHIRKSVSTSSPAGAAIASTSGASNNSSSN
The target of experiment [8] is Cell division cycle 7-related protein kinase (Homo sapiens, UniProt O00311). Description: Selectivity interaction (Kinase panel (Enzyme activity assay)) EUB0000612a CDC7.
Cell division cycle 7-related protein kinase, sequence (O00311 whole entry): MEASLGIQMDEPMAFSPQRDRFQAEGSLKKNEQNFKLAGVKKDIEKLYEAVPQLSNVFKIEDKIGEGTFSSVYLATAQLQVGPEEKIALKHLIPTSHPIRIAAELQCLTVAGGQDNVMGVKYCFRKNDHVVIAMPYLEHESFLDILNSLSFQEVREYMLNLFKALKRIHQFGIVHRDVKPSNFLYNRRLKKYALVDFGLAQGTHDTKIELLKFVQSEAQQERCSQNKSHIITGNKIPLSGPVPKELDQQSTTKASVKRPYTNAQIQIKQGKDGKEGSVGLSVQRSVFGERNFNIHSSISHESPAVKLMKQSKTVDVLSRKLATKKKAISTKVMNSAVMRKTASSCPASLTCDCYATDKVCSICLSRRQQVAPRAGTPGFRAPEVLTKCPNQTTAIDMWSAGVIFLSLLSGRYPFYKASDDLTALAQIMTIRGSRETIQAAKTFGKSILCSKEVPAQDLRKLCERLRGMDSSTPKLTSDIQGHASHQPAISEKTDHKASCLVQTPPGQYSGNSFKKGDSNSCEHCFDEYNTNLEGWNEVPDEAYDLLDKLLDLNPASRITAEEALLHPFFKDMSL
Experiment [9] has as its target STE20-like serine/threonine-protein kinase (Homo sapiens, UniProt Q9H2G2). Description: Selectivity interaction (KinomeScan (DiscoverX)) EUB0001049a SLK. The conditions noted are these: at 1 µM.
The subject of experiment [10] is ALK tyrosine kinase receptor (Homo sapiens), Q9UM73 [C1156Y]. Description: (§1) Selectivity interaction (KinomeScan (DiscoverX)) EUB0000229b ALK. The conditions noted are these: at 1 µM.
Experiment [11] concerns ALK tyrosine kinase receptor (Homo sapiens), Q9UM73 [L1196M]. Described as §1. The conditions noted are these: at 1 µM.
ALK tyrosine kinase receptor (Homo sapiens), Q9UM73 [L1196M], sequence (Q9UM73 whole entry L1196M, looked up): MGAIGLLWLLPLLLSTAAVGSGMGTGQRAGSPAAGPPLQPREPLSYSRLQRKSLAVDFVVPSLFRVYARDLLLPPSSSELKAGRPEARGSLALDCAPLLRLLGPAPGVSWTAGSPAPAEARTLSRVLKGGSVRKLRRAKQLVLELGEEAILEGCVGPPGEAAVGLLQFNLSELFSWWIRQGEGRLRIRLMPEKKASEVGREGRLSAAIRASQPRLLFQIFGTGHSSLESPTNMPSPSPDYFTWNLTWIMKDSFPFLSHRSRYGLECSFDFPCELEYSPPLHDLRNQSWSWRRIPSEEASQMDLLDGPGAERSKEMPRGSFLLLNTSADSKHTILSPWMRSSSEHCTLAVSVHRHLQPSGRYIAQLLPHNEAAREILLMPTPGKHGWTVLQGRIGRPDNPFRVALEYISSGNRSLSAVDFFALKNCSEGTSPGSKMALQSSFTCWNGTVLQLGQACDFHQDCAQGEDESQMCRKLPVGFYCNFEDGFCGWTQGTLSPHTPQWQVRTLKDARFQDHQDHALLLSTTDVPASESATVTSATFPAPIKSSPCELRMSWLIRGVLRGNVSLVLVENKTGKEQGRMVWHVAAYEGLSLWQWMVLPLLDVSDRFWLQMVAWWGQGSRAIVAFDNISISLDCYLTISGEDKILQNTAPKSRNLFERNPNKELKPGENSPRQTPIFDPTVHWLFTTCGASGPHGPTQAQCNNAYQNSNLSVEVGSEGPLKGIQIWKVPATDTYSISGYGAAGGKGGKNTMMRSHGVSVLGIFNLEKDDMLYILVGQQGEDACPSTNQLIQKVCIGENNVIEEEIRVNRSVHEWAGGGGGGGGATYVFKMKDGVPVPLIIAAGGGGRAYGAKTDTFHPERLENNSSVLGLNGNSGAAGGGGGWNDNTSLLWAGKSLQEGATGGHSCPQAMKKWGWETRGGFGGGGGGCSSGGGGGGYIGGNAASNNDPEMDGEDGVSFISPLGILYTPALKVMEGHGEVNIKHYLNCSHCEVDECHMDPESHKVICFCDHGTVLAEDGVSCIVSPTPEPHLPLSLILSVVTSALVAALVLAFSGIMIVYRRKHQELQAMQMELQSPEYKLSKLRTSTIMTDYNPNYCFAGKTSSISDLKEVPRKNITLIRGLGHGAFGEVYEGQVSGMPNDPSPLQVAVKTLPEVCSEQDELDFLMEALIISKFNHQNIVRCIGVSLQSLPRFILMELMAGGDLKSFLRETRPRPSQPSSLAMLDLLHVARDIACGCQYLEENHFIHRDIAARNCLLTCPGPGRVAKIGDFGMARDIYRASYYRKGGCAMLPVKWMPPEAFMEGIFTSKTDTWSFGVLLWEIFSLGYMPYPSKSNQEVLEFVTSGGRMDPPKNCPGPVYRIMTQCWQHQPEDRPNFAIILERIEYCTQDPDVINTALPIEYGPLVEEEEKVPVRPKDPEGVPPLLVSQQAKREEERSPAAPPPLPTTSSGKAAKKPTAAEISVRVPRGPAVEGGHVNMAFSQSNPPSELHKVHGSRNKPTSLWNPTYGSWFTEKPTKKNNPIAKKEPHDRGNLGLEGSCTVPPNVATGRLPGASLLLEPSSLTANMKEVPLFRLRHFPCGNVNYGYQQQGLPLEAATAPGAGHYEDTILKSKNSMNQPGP
For experiment [12], the target named is Glycogen synthase kinase-3 beta (Homo sapiens, UniProt P49841). Description: Selectivity interaction (KinomeScan (DiscoverX)) EUB0000229b GSK3B. The conditions noted are these: at 10 µM.
Glycogen synthase kinase-3 beta, sequence (P49841 whole entry, looked up): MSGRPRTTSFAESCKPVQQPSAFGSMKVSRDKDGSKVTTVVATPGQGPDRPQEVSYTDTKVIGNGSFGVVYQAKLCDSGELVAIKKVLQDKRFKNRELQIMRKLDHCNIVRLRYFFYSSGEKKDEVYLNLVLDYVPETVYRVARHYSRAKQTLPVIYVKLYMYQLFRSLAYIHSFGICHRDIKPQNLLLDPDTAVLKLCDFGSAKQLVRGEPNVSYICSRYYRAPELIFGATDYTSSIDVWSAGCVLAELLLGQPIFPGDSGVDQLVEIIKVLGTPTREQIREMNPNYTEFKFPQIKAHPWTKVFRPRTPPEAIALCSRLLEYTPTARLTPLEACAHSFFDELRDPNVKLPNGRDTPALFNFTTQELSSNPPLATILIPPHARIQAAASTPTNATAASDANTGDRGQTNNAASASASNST
Experiment [13] has as its target Mitogen-activated protein kinase kinase kinase kinase 5 (Homo sapiens) (UniProt Q9Y4K4). Description: Selectivity interaction (Kinase panel (KiNativ target engagement assay in Jurkat cells)) EUB0001635a MAP4K5. In kind it is cell-based. The conditions noted are these: Selectivity number of off-targets 0.0, Selectivity number of targets 233.0, Source Knowledge https://www.sciencedirect.com/science/article/pii/S2451945619300674?via%3Dihub, at 1 µM.

Experiment [14] concerns the target T3, Serine/threonine-protein kinase ULK3 (Homo sapiens) (UniProt Q6PHR2).
T3 sequence (whole entry): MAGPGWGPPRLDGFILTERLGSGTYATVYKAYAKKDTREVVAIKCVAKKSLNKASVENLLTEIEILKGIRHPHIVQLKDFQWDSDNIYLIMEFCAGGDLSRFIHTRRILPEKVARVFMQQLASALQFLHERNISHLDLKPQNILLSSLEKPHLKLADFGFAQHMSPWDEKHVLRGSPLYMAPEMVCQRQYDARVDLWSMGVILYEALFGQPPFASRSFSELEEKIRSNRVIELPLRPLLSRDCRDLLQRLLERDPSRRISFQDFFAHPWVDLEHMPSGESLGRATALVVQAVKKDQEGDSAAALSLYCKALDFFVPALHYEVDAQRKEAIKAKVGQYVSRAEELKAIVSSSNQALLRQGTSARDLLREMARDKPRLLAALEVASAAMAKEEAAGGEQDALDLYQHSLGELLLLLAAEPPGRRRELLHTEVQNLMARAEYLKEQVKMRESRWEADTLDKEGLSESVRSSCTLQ
The experiment is described as follows: Selectivity interaction (Kinase panel (KiNativ target engagement assay in Jurkat cells)) EUB0001635a ULK3. The format is cell-based. The conditions noted are these: at 1 µM.

Activin receptor type-1-like (Homo sapiens), sequence (P37023 whole entry): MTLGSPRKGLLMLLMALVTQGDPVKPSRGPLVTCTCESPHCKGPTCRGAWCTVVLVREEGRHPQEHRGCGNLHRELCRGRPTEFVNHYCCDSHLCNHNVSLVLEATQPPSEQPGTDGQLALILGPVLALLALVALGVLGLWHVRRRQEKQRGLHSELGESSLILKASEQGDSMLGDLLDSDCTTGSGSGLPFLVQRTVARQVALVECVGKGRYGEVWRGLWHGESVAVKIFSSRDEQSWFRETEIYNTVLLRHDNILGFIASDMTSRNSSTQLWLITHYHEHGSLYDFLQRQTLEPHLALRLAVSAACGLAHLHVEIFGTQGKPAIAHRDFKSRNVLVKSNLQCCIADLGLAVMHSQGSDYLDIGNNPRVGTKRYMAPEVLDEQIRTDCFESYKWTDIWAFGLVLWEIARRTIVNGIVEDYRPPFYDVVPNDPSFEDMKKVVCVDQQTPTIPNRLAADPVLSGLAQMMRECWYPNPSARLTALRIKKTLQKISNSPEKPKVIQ
ALK tyrosine kinase receptor (Homo sapiens), Q9UM73 [C1156Y], sequence (Q9UM73 whole entry C1156Y, looked up): as the sequence (Q9UM73 whole entry L1196M, looked up) above, with C1156Y, M1196L counted along it

In experiment [1], `COCC(=O)NC/C=C/c1ccc2ncnc(Nc3ccc(Oc4ccc(C)nc4)c(C)c3)c2c1` [CP-724714] came in with a % of control of 98%.
Consider `CNC(=O)Nc1ccc(-c2nc(N3CC4CCC(C3)O4)c3cnn(C4CCC5(CC4)OCCO5)c3n2)cc1`, for which the values for the % of control in experiment [2], in [3] and in experiment [4] were 100%, 100% and 75%, respectively.
For the compound `CC[C@@H]1[C@H](F)C(=O)N[C@@H]1COc1nccc2cc(C(N)=O)c(OC)cc12` [ZIMLOVISERTIB], the % of inhibition in experiment [5] is 57.8%; in [6] it was -0.9%; in experiment [7] (at 0.01 µM), 16.6%; in [7] (at 0.04 µM), 2.6%; in experiment [7] (at 0.2 µM) it was 18.7%; in [7] (at 1 µM), 46.3%. Moreover, the % of inhibition in experiment [7] (at 5 µM) was determined as 73.5%.
Regarding `CCc1cccc(CC)c1NC(=O)c1nn(C)c2c1CCc1cnc(Nc3ccc(C(=O)NC4CCN(C)CC4)cc3OC(F)(F)F)nc1-2`, the IC50 in experiment [8] is > 10 µM.
For the compound `COc1cc(Nc2nc(C)cc(-c3cnn4nc(OC)ccc34)n2)cc(C(F)(F)F)c1`, the % of control in [9] stood at 88%.
For the compound `COc1cc(N(C)c2ccnc3ccc(C(F)(F)F)cc23)cc(OC)c1OC`, the % binding in [10] was 83%; in [11], 89%; in experiment [12], 81%.
Regarding `C=CC(=O)Nc1ccc(C(=O)Nc2[nH]nc3c2CN(C(=O)N[C@H](CN(C)C)c2ccccc2)C3(C)C)cc1`, the % of engagement in experiment [13] was 6%; in [14] (Selectivity number of off-targets 0.0, Selectivity number of targets 233.0, Source Knowledge https://www.sciencedirect.com/science/article/pii/S2451945619300674?via%3Dihub) it was -7.1%; in [14] it was -1.1%.
